Assays:
[1] = Measurement of Log P values by HPLC on reversed phase columns (EEC directive 79/831 Annex V.A8); format: physicochemical; settings: Table 1, compounds of formula (I); method [a]: LC-UV, acidic range, 0.1% formic acid in water and acetonitrile
[2] = system: Colletotrichum lindemuthianum; experiment: Colletotrichum lindemuthianum in vitro cell test; format: cell-based; settings: 144 h, liquid culture, 6 days incubation, read-out: efficacy (inhibition of fungal growth); for inhibition at 50 µM: 50 μMol/l of active ingredient; for inhibition at 20 ppm: 20 ppm of active ingredient
Experimental: (§1) B-7. Colletotrichum lindemuthianum In Vitro Cell Test • Solvent: DMSO • Culture medium: 14.6 g anhydrous D-glucose (VWR), 7.1 g Mycological Peptone (Oxoid), 1.4 g granulated Yeast Extract (Merck), QSP 1 liter • Inoculum: spores suspension Fungicides were solubilized in DMSO and the solution used to prepare the required range of concentrations. […] A spore suspension of C. lindemuthianum was prepared and diluted to the desired spore density. Fungicides were evaluated for their ability to inhibit spores germination and mycelium growth in liquid culture assay. The compounds were added in the desired concentration to the culture medium with spores. After 6 days incubation, fungi-toxicity of compounds was determined by spectrometric measurement of mycelium growth. Inhibition of fungal growth was determined by comparing the absorbance values in wells containing the fungicides with the absorbance in control wells without fungicides.

Fusarium culmorum = Fusarium culmorum in vitro cell test; format: cell-based; settings: 120 h, 50 μMol/l of active ingredient, liquid culture, 5 days incubation, read-out: efficacy (inhibition of fungal growth)
Experimental: B-10. Fusarium culmorum In Vitro Cell Test • Solvent: DMSO • Culture medium: 1 g KH2PO4 (VWR), 1 g K2HPO4 (VWR), 0.5 g Urea (VWR), 3 g KNO3 (Prolabo), 10 g saccharose (VWR), 0.5 g MgSO4, 7H2O (Sigma), 0.07 g CaCl2, 2H2O (Prolabo), 0.2 mg MnSO4, H2O (Sigma), 0.6 mg CuSO4, 5H2O (Sigma), 7.9 mg ZnSO4, 7H2O (Sigma), 0.1 mg H3BO3 (Merck), 0.14 mg NaMoO4, 2H2O (Sigma), 2 mg thiamine (Sigma), 0.1 mg biotine (VWR), 4 mg FeSO4, 7H2O (Sigma), QSP 1 liter • Inoculum: spores suspension
Fungicides were solubilized in DMSO and the solution used to prepare the required range of concentrations. The final concentration of DMSO used in the assay was ≤1%.
A spore suspension of F. culmorum was prepared and diluted to the desired spore density.
Fungicides were evaluated for their ability to inhibit spore germination and mycelium growth in liquid culture assay. The compounds were added in the desired concentration to the culture medium with spores. After 5 days incubation, fungi-toxicity of compounds was determined by spectrometric measurement of mycelium growth. Inhibition of fungal growth was determined by comparing the absorbance values in wells containing the fungicides with the absorbance in control wells without fungicides.

Botrytis cinerea [3] = experiment: In vivo preventive test on Botrytis cinerea (grey mould); settings: 500 ppm of active ingredient, sprayed on young gherkin or cabbage plants 24 h before inoculation, evaluated 4 to 5 days after inoculation, read-out: efficacy
Experimental: The active ingredients were made soluble and homogenized in a mixture of Dimethyl sulfoxide/Acetone//Tween® 80 and then diluted in water to the desired concentration. The young plants of gherkin or cabbage were treated by spraying the active ingredient prepared as described above. Control plants were treated only with an aqueous solution of Acetone/Dimethyl sulfoxide/Tween® 80. After 24 hours, the plants were contaminated by spraying the leaves with an aqueous suspension of Botrytis cinerea spores.

Botrytis cinerea [4] = experiment: Botrytis cinerea in vitro cell test; format: cell-based; settings: 144 h, liquid culture, 6 days incubation, read-out: efficacy (inhibition of fungal growth); for inhibition at 50 µM: 50 μMol/l of active ingredient; for inhibition at 20 ppm: 20 ppm of active ingredient
Experimental: B-9. Botrytis cinerea In Vitro Cell Test • Solvent: DMSO • Culture medium: 1 g KH2PO4 (VWR), 1 g K2HPO4 (VWR), 0.5 g Urea (VWR), 3 g KNO3 (Prolabo), 10 g saccharose (VWR), 0.5 g MgSO4, 7H2O (Sigma), 0.07 g CaCl2, 2H2O (Prolabo), 0.2 mg MnSO4, H2O (Sigma), 0.6 mg CuSO4, 5H2O (Sigma), 7.9 mg ZnSO4, 7H2O (Sigma), 0.1 mg H3BO3 (Merck), 0.14 mg NaMoO4, 2H2O (Sigma), 2 mg thiamine (Sigma), 0.1 mg biotine (VWR), 4 mg FeSO4, 7H2O (Sigma), QSP 1 liter • Inoculum: spore suspension Fungicides were solubilized in DMSO and the solution used to prepare the required range of concentrations. […] A spore suspension of B. cinerea was prepared and diluted to the desired spore density. Fungicides were evaluated for their ability to inhibit spore germination and mycelium growth in liquid culture assay. The compounds were added in the desired concentration to the culture medium with spores. After 6 days incubation, fungi-toxicity of compounds was determined by spectrometric measurement of mycelium growth. Inhibition of fungal growth was determined by comparing the absorbance values in wells containing the fungicides with the absorbance in control wells without fungicides.

Pyrenophora teres = Pyrenophora teres in vitro cell test; format: cell-based; settings: 144 h, liquid culture, 6 days incubation, read-out: efficacy (inhibition of fungal growth)
Experimental: as §1, with “B-8. Pyrenophora teres In” for “B-7. Colletotrichum lindemuthianum In”, “Inoculum: spore” for “Inoculum: spores”, “of P. teres” for “of C. lindemuthianum”, “inhibit spore” for “inhibit spores”

Pyricularia oryzae = experiment: microbe, parasite or virus in culture; format: cell-based; settings: 120 h; for inhibition at 20 ppm: read-out: efficacy (inhibition of fungal growth), 20 ppm of active ingredient, liquid culture, 5 days incubation

`Cc1ccc(Sc2nnc(C)c(C)c2C2=NOC[C@@H](c3ccc(C)s3)N2)c(C)c1` (racemic) [Compound I-126] showed a chromatographic logP [1] of 3.28 and an inhibition at 50 µM [2] of 70 to 79%.

In the case of `Cc1cc([C@@H]2CON=C(c3c(Sc4cccc(OC(F)(F)F)c4)nnc(C)c3C)N2)c(C)s1` (racemic) [Compound I-047], the chromatographic logP [1] was 3.83 and the inhibition at 50 µM [2] was 90 to 100%.

With `CCOc1cccc(Sc2nnc(C)c(C)c2C2=NOC[C@@H](c3ccc(C)s3)N2)c1` (racemic) [Compound I-074] the chromatographic logP [1] was 3.09 and the inhibition at 50 µM [2] was 90 to 100%.

Molecule `Cc1ccc([C@H]2CON=C(c3c(Sc4ccc(F)c(F)c4)nnc(C)c3C)N2)s1` (racemic) [Compound I-085] has a chromatographic logP [1] of 2.99, an inhibition at 50 µM (Fusarium culmorum) of 70 to 79% and a pest or weed control at 500 ppm (Botrytis cinerea [3]) of 90 to 100%. The inhibition at 50 µM (Botrytis cinerea [4]) was 90 to 100%.

Molecule `CCOc1cccc(Sc2nnc(C)c(C)c2C2=NOC[C@@H](c3cc(C)sc3C)N2)c1` (racemic) [Compound I-046] has a chromatographic logP [1] of 3.44 and an inhibition at 50 µM [2] of 80 to 89%.

`Cc1ccc(C[C@H]2CON=C(c3c(Sc4cccc(OC(F)(F)F)c4)cnc4ccccc34)N2)c(C)c1` (racemic) [Compound I-025] showed a chromatographic logP [1] of 4.73, an inhibition at 20 ppm [2] of 90 to 100% and an inhibition at 20 ppm (Botrytis cinerea [4]) of 90 to 100%.

`Cc1ccc([C@H]2CON=C(c3c(Sc4ccc(F)c(Cl)c4)nnc(C)c3C)N2)s1` (racemic) [Compound I-083] showed a chromatographic logP [1] of 3.26, an inhibition at 50 µM [2] of 90 to 100% and an inhibition at 50 µM (Botrytis cinerea [4]) of 90 to 100%.

With `Cc1cccc(Sc2nnc(Cl)cc2C2=NOC[C@@H](Cc3ccc(Cl)cc3Cl)N2)c1` (racemic) [Compound I-028] the LogP [1] was 4.56^[a], the inhibition at 20 ppm (Pyrenophora teres; 20 ppm of active ingredient) was 90 to 100% and the inhibition at 20 ppm (Pyricularia oryzae) was 70 to 79%. The inhibition at 20 ppm [2] was 80 to 89%.

With `Cc1ccc([C@@H]2CON=C(c3c(Sc4cccc(OC(F)(F)F)c4)nnc(C)c3C)N2)s1` (racemic) [Compound I-055] the chromatographic logP [1] was 3.48, the pest or weed control at 500 ppm (Botrytis cinerea [3]) was 70 to 79% and the inhibition at 50 µM [2] was 90 to 100%. The inhibition at 50 µM (Botrytis cinerea [4]) was 80 to 89%.

For `Cc1cccc(Sc2nnc(C)c(C)c2C2=NOC[C@H](c3ccc(C)s3)N2)n1` (racemic) [Compound I-127], the chromatographic logP [1] was 2.21 and the pest or weed control at 500 ppm (Botrytis cinerea [3]) was 80 to 89%.

`CCOc1cccc(Sc2nnc3ccccc3c2C2=NOC[C@H](c3ccc(C)s3)N2)c1` (racemic) [Compound I-040] gave a chromatographic logP [1] of 3.55, an inhibition at 50 µM (Fusarium culmorum) of 80 to 89% and an inhibition at 50 µM [2] of 90 to 100%. It also gave an inhibition at 50 µM (Botrytis cinerea [4]) of 70 to 79%.

For `Cc1ccc([C@H]2CON=C(c3c(Sc4ccccc4)nnc(C)c3C)N2)s1` (racemic) [Compound I-117], the chromatographic logP [1] was 2.69, the inhibition at 50 µM (Fusarium culmorum) was 80 to 89% and the pest or weed control at 500 ppm (Botrytis cinerea [3]) was 90 to 100%. For the same molecule, the inhibition at 50 µM (Botrytis cinerea [4]) was 90 to 100%.

Molecule `Cc1cc([C@@H]2CON=C(c3c(Sc4cccc(C(F)(F)F)c4)nnc(C)c3C)N2)c(C)s1` (racemic) [Compound I-086, (5R,S)-(2,5-dimethyl-3-thienyl)-3-(5,6-dimethyl-3-{[3-(trifluoromethyl)phenyl]sulfanyl}pyridazin-4-yl)-5,6-dihydro-4H-1,2,4-oxadiazine] has a chromatographic logP [1] of 3.72, an inhibition at 50 µM (Pyrenophora teres; 50 μMol/l of active ingredient) of 90 to 100% and an inhibition at 50 µM (Pyricularia oryzae; read-out: efficacy (inhibition of fungal growth), 50 μMol/l of active ingredient, liquid culture, 5 days incubation) of 70 to 79%. The inhibition at 50 µM [2] was 90 to 100% and the inhibition at 50 µM (Botrytis cinerea [4]) was 90 to 100%.

`Cc1ccc(CC2CON=C(c3cc(Cl)nnc3S(=O)(=O)c3cccc(C(F)(F)F)c3)N2)c(C)c1` (racemic) [Compound I-001, (5RS)-3-(6-chloro-3-{[3-(trifluoromethyl)phenyl]sulfonyl}pyridazin-4-yl)-5-(2,4-dimethylbenzyl)-5,6-dihydro-4H-1,2,4-oxadiazine] showed a chromatographic logP [1] of 4.24 and an inhibition at 20 ppm (Pyricularia oryzae) of 90 to 100%.

With `Cc1ccc([C@@H]2CON=C(c3c(Sc4ccccc4C)nnc(C)c3C)N2)s1` (racemic) [Compound I-045] the chromatographic logP [1] was 2.94, the pest or weed control at 500 ppm (Botrytis cinerea [3]) was 80 to 89% and the inhibition at 50 µM (Botrytis cinerea [4]) was 80 to 89%.

Molecule `Cc1ccc([C@@H]2CON=C(c3c(Sc4cccc5ccccc45)nnc4ccccc34)N2)s1` (racemic) [Compound I-102] has a chromatographic logP [1] of 3.8, an inhibition at 50 µM [2] of 80 to 89% and an inhibition at 50 µM (Botrytis cinerea [4]) of 80 to 89%.

Work on `COc1cccc(Sc2nnc(Cl)cc2C2=NOC[C@@H](Cc3ccc(Cl)cc3Cl)N2)c1` (racemic) [Compound I-034] yielded a chromatographic logP [1] of 4.3, an inhibition at 20 ppm (Pyricularia oryzae) of 70 to 79% and an inhibition at 20 ppm [2] of 90 to 100%. It also gave an inhibition at 20 ppm (Botrytis cinerea [4]) of 90 to 100%.

`Cc1ccc([C@@H]2CON=C(c3c(Sc4ccc(F)cc4F)nnc(C)c3C)N2)s1` (racemic) [Compound I-073] showed a chromatographic logP [1] of 2.95 and an inhibition at 50 µM (Botrytis cinerea [4]) of 80 to 89%.

Work on `Cc1cc([C@@H]2CON=C(c3c(Sc4ccc(OC(F)(F)F)cc4)nnc(C)c3C)N2)c(C)s1` (racemic) [Compound I-119] yielded a chromatographic logP [1] of 3.87 and an inhibition at 50 µM (Botrytis cinerea [4]) of 70 to 79%.

Work on `Cc1ccc([C@@H]2CON=C(c3c(Sc4ccc(C)c(Cl)c4)nnc(C)c3C)N2)s1` (racemic) [Compound I-082] yielded a chromatographic logP [1] of 3.47 and an inhibition at 50 µM (Botrytis cinerea [4]) of 90 to 100%.

`COc1cccc(Sc2nnc(C)c(C)c2C2=NOC[C@@H](c3ccc(C)s3)N2)c1` (racemic) [Compound I-084] gave a chromatographic logP [1] of 2.77, an inhibition at 50 µM [2] of 90 to 100% and an inhibition at 50 µM (Botrytis cinerea [4]) of 70 to 79%.

`Cc1ccc(Sc2nnc(C)c(C)c2C2=NOC[C@@H](c3cc(C)sc3C)N2)cc1` (racemic) [Compound I-099] showed a chromatographic logP [1] of 3.36, a pest or weed control at 500 ppm (Botrytis cinerea [3]) of 70 to 79% and an inhibition at 50 µM [2] of 70 to 79%. The inhibition at 50 µM (Botrytis cinerea [4]) was 80 to 89%.

In the case of `Cc1ccc([C@H]2CON=C(c3c(Sc4ccc(F)cc4F)nnc4ccccc34)N2)s1` (racemic) [Compound I-048], the chromatographic logP [1] was 3.4, the pest or weed control at 500 ppm (Botrytis cinerea [3]) was 90 to 100% and the inhibition at 50 µM (Botrytis cinerea [4]) was 90 to 100%.

In the case of `FC(F)(F)Oc1cccc(Sc2cnc(Cl)cc2C2=NOC[C@H](Cc3ccc(Cl)cc3Cl)N2)c1` (racemic) [Compound I-020], the chromatographic logP [1] was 5.13 and the inhibition at 20 ppm [2] was 90 to 100%.

For `COc1cccc(Sc2cnc(Cl)cc2C2=NOC[C@H](Cc3ccc(Cl)cc3Cl)N2)c1` (racemic) [Compound I-002], the chromatographic logP [1] was 4.51, the inhibition at 20 ppm (Pyricularia oryzae) was 70 to 79% and the inhibition at 20 ppm [2] was 90 to 100%. For the same molecule, the inhibition at 20 ppm (Botrytis cinerea [4]) was 90 to 100%.

Work on `Cc1ccc([C@H]2CON=C(c3c(Sc4ccc(Cl)c(Cl)c4)nnc4ccccc34)N2)s1` (racemic) [Compound I-038] yielded a chromatographic logP [1] of 4.04, a pest or weed control at 500 ppm (Botrytis cinerea [3]) of 70 to 79% and an inhibition at 50 µM (Botrytis cinerea [4]) of 90 to 100%.

Source: patent publication US20250042886A1, “BIS(HETERO)ARYL THIOETHER OXADIAZINES AS FUNGICIDAL COMPOUNDS” (Bayer Aktiengesellschaft, priority 2021, published 2025)
